Values belong to the compound of their own block, whether it stands above or below them.
Legend:
[1] = Stability in mouse liver microsomes assessed as compound remaining at 1 uM after 15 mins; format: ADME, microsome; settings: read-out: Stability
[2] = target: T1, Proto-oncogene tyrosine-protein kinase receptor Ret (Homo sapiens, UniProt P07949); assay: Inhibition of human RET using KKKSPGEYVNIEFG as peptide substrate in presence of [gamma33P]ATP by radiometric assay
[3] = target: Proto-oncogene tyrosine-protein kinase receptor Ret (Homo sapiens, UniProt P07949, V804M); assay: Inhibition of human RET V804M mutant using peptide substrate KKKVSRSGLYRSPS MPENLNRPR in presence of [gamma33P]ATP by radiometric assay
[4] = Cytotoxicity against human Nthy-ori 3-1 cells assessed as reduction in cell viability by CellTiter-Glo luminescence assay; format: cell-based
[5] = Cytotoxicity against mouse BA/F3 cells assessed as reduction in cell viability by CellTiter-Glo luminescence assay; format: cell-based, BaF3
[6] = target: T1, Proto-oncogene tyrosine-protein kinase receptor Ret
Description: Inhibition of RET (unknown origin) transfected in mouse Ba/F3 cells assessed as reduction in cell viability by CellTiter-Glo luminescence assay

[7] = system: Proto-oncogene tyrosine-protein kinase receptor Ret (Homo sapiens), P07949 [V804M]
Description: Inhibition of RET V804M mutant (unknown origin) transfected in mouse Ba/F3 cells assessed as reduction in cell viability by CellTiter-Glo luminescence assay

[8] = system: Proto-oncogene tyrosine-protein kinase receptor Ret (Homo sapiens), P07949 [C634W]
Description: Inhibition of RET C634W mutant in human TT cells assessed as reduction in cell viability by CellTiter-Glo luminescence assay

[9] = Stability in human liver microsomes assessed as compound remaining at 1 uM after 15 mins; format: ADME, microsome; settings: read-out: Stability
[10] = Stability in rat liver microsomes assessed as compound remaining at 1 uM after 15 mins; format: ADME, microsome; settings: read-out: Stability
[11] = Stability in rat liver microsomes assessed as compound remaining at 1 uM after 30 mins; format: ADME, microsome; settings: read-out: Stability
[12] = Stability in human liver microsomes assessed as compound remaining at 1 uM after 30 mins; format: ADME, microsome; settings: read-out: Stability
[13] = Induction of apoptosis in human Nthy-ori 3-1 cells assessed as increase in cleaved PARP level at 5 to 20 uM after 48 hrs by Western blot method; format: cell-based; settings: nthy-ori 3-1, 48 h
[14] = Induction of apoptosis in human Nthy-ori 3-1 cells assessed as increase in cleaved PARP level at 5 uM after 48 hrs by Western blot method; format: cell-based; settings: nthy-ori 3-1, 48 h

Sequence of Proto-oncogene tyrosine-protein kinase receptor Ret (Homo sapiens), P07949 [C634W] (P07949 whole entry C634W): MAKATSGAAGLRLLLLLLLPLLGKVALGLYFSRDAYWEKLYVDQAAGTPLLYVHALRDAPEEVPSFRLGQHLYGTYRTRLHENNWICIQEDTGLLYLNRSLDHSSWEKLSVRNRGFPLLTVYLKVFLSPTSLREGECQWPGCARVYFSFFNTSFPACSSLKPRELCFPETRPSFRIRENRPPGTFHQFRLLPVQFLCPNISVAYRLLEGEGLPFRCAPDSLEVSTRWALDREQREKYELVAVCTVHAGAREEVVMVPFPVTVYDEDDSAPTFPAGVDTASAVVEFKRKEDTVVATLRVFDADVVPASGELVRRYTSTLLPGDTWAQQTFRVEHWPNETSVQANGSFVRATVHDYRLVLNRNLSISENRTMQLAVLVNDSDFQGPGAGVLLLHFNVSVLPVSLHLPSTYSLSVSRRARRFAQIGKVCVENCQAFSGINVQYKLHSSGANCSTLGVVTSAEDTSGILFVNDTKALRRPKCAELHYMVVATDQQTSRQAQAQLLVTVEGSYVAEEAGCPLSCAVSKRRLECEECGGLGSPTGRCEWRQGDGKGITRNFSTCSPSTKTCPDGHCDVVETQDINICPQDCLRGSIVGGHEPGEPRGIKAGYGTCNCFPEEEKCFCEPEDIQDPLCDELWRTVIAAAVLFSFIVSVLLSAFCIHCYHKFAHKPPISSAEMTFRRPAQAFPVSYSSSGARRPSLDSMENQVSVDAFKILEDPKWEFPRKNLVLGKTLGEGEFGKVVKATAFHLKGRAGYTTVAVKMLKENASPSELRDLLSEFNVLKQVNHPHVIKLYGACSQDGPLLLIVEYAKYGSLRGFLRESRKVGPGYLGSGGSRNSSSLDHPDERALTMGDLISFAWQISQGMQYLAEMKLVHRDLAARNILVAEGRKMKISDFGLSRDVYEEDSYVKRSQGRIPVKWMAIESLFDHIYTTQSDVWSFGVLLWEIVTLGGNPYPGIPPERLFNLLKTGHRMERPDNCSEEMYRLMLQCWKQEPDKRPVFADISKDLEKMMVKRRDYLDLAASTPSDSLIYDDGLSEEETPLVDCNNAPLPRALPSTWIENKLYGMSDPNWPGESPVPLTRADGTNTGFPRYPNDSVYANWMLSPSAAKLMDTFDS
Sequence of Proto-oncogene tyrosine-protein kinase receptor Ret (Homo sapiens), P07949 [V804M] (P07949 whole entry V804M): as the sequence (P07949 whole entry C634W) above, with W634C, V804M counted along it
Sequence of Proto-oncogene tyrosine-protein kinase receptor Ret (Homo sapiens, UniProt P07949, V804M) (P07949 29-1114 V804M limits assumed): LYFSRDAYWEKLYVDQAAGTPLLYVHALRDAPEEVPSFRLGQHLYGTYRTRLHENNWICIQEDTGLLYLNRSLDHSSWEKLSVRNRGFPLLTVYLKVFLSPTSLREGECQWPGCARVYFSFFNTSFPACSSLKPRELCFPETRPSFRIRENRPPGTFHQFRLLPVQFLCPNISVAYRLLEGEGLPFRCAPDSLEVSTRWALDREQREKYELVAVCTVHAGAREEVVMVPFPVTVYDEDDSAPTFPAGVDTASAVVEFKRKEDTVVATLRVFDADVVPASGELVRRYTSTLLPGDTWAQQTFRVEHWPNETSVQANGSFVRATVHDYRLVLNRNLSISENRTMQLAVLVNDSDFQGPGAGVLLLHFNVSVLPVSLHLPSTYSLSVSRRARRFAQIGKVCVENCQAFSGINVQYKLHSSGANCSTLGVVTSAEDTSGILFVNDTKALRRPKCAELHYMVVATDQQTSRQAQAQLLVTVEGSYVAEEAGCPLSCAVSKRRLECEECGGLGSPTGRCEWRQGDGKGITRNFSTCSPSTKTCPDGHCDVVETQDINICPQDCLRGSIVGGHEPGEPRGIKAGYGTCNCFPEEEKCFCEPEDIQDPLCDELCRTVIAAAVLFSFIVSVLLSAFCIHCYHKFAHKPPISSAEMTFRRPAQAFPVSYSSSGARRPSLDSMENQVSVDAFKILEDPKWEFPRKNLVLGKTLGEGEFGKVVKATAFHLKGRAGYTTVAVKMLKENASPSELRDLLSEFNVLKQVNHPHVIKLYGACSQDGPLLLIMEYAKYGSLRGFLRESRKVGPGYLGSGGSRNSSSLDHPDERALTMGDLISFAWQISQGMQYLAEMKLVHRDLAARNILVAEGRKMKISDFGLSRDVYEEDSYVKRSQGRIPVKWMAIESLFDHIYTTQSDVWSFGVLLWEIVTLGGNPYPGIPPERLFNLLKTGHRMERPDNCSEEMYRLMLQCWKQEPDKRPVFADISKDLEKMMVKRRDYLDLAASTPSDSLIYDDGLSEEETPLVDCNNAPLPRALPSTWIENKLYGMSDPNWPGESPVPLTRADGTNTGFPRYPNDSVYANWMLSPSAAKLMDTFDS
T1 sequence (P07949 whole entry): as the sequence (P07949 whole entry C634W) above, with W634C counted along it

SMILES: CC(C)n1nc(-c2cc(-c3ccc(F)cc3)on2)c(C(N)=O)c1N
remaining at 0.25 h, 1 µM [1]: 85.2%
IC50 [2]: 416 nM

SMILES: CC(C)n1nc(-c2cc(-c3ccsc3)on2)c(C(N)=O)c1N
remaining at 0.25 h, 1 µM [1]: 11.8%
IC50 [2]: 162 nM
IC50 [3]: 2900 nM
GI50 [4]: > 10000 nM
GI50 [5]: > 10000 nM
GI50 [6]: > 10000 nM
GI50 [7]: > 10000 nM
GI50 [8]: > 10000 nM

SMILES: CC(C)n1nc(-c2cc(C3CC3)on2)c(C(N)=O)c1N
remaining at 0.25 h, 1 µM [1]: 62.5%
IC50 [2]: 44 nM
IC50 [3]: 252 nM
remaining at 0.25 h, 1 µM [9]: 73%
remaining at 0.25 h, 1 µM [10]: 70%
remaining at 0.5 h, 1 µM [11]: 69%
remaining at 0.5 h, 1 µM [12]: 45.1%
GI50 [4]: > 10000 nM
GI50 [5]: > 10000 nM
Activity [13]: Non-Toxic
GI50 [6]: 870 nM
GI50 [7]: 6980 nM
GI50 [8]: 1660 nM

SMILES: CC(C)n1nc(-c2cc(-c3cccnc3)on2)c(C(N)=O)c1N
remaining at 0.25 h, 1 µM [1]: 86.7%
IC50 [2]: 3390 nM

SMILES: CC(C)n1nc(-c2cc(-c3ccccc3)on2)c(C(N)=O)c1N
remaining at 0.25 h, 1 µM [1]: 60.8%
IC50 [2]: 236 nM

SMILES: CC(C)n1nc(-c2cc(C3CCCCC3)on2)c(C(N)=O)c1N
remaining at 0.25 h, 1 µM [1]: 40.6%
IC50 [2]: 2700 nM

SMILES: COc1cc2nccc(Oc3ccc(NC(=O)C4(C(=O)Nc5ccc(F)cc5)CC4)cc3)c2cc1OC [CABOZANTINIB]
GI50 [4]: 2920 nM
GI50 [5]: > 10000 nM
Activity [14]: Toxic
GI50 [6]: 70 nM
GI50 [7]: 740 nM
GI50 [8]: 260 nM

SMILES: CC(C)n1nc(-c2cc(Cc3ccccc3)on2)c(C(N)=O)c1N
remaining at 0.25 h, 1 µM [1]: 54.6%
IC50 [2]: 1640 nM

SMILES: CC(C)n1nc(-c2cc(-c3cccs3)on2)c(C(N)=O)c1N
remaining at 0.25 h, 1 µM [1]: 32.1%
IC50 [2]: 78 nM
IC50 [3]: 1220 nM
GI50 [4]: > 10000 nM
GI50 [5]: > 10000 nM
GI50 [6]: > 10000 nM
GI50 [7]: > 10000 nM
GI50 [8]: > 10000 nM

Other lines, results leading:

remaining at 0.25 h, 1 µM [1]: 78%
IC50 [2]: 2220 nM
SMILES: CC(C)n1nc(-c2cc(C(C)(C)C)on2)c(C(N)=O)c1N

remaining at 0.25 h, 1 µM [1]: 15.1%
IC50 [2]: 631 nM
SMILES: CCc1cc(-c2nn(C(C)C)c(N)c2C(N)=O)no1

remaining at 0.25 h, 1 µM [1]: 2.8%
IC50 [2]: 139 nM
SMILES: CC(C)n1nc(-c2coc(C3CC3)n2)c2c(N)ncnc21

remaining at 0.25 h, 1 µM [1]: 1.4%
SMILES: Nc1ncnc2[nH]nc(-c3cc(C4CC4)on3)c12

remaining at 0.25 h, 1 µM [1]: 5.1%
remaining at 0.25 h, 1 µM [9]: 29%
remaining at 0.25 h, 1 µM [10]: 3.8%
remaining at 0.5 h, 1 µM [11]: 4.1%
remaining at 0.5 h, 1 µM [12]: 4.6%
SMILES: CC(C)c1cc(-c2nn(C(C)C)c3ncnc(N)c23)no1

remaining at 0.25 h, 1 µM [1]: 51.6%
IC50 [2]: 1260 nM
SMILES: CC(C)c1cc(-c2nn(C(C)C)c(N)c2C(N)=O)no1

remaining at 0.25 h, 1 µM [1]: 49%
IC50 [2]: 4800 nM
SMILES: CC(C)n1nc(-c2cc(-c3ccccn3)on2)c(C(N)=O)c1N

remaining at 0.25 h, 1 µM [1]: 61.8%
IC50 [2]: 1660 nM
SMILES: Cc1ccc(-c2cc(-c3nn(C(C)C)c(N)c3C(N)=O)no2)cc1

remaining at 0.25 h, 1 µM [1]: 2.6%
SMILES: CC(C)n1nc(-c2ccon2)c2c(N)ncnc21
